Biological target: T1, novel phytase produced by Bacillus sp. DS11 (KCTC 0231BP), N-terminal amino acid sequence SEQ ID NO: 1 (Bacillus sp., UniProt O66037)
T1 construct: made in house; host or cells: Bacillus sp; DS11 (KCTC 0231BP), native producer strain; enzyme purified from culture supernatant
Experiment: biochemical
Assay type: biochemical
Details: for enzyme activity with additive (Non-addition = 100): 30 min
Protocol: The potency of produced enzyme was measured as follows: By using a substrate, comprising 2 mM phytic acid sodium salts and 2 mM CaCl2 in 0.1 M Tris buffer solution (pH 7.0), the enzyme was reacted at 37° C. for 30 minutes to measure the amount of phosphoric acid generated. One unit of the enzymatic potency is equivalent to the enzymatic amount degrading 1 μ mol of inorganic phosphate per 1 minute. As a result of said measurement, the novel enzyme has the enzymatic potency of 0.3 unit per protein mg. The maximum amount of enzyme in fermentation yielding 0.6 unit/mg was obtained when 30 l of strains, a working volume, was charged to a 50 l fermenter and cultivated at 37° C. for 48 hours under the following conditions: air influx--0.8 vvm; stirring rate--150 rpm.
2 l of novel strain solution, cultivated according to the procedure as described in said Example, was centrifuged for 15 minutes. Then, the supernatant solution was saturated with 50% acetone to precipitate proteins and the crude enzyme solution passed through dialysis membrane was purified on a column containing phenyl sepharose CL-4B, Resource S and superose 12 HR 10/30 (all of which are manufactured by Pharmacia, Sweden) so as to isolate the phytase enzyme only. The analytical results by said column are represented in the attached drawing FIG. 2.

[1] = 0.5 h, pH 7, read-out: enzyme activity with additive (Non-addition = 100)

T1 sequence (O66037 31-383): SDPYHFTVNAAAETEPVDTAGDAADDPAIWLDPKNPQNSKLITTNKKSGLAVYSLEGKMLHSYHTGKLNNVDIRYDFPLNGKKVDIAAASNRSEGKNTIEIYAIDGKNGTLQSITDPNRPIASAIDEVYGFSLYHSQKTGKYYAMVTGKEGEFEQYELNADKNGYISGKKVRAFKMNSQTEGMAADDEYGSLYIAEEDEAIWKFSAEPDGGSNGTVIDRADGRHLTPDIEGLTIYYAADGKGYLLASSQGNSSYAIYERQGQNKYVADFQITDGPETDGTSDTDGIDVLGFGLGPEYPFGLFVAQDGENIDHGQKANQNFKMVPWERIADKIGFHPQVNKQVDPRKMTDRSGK

| SMILES | inhibition of enzyme activity (in words) | remaining activity at 1000 µM [1] [%] | remaining activity at 5000 µM [1] [%] | enzyme activity with additive (Non-addition = 100) (additive concentration 1 mM) | enzyme activity with additive (Non-addition = 100) (additive concentration 5 mM) |
| --- | --- | --- | --- | --- | --- |
| O=C(O)CN(CCN(CC(=O)O)CC(=O)O)CC(=O)O [EDTA] | inhibited the entire enzyme activity | 7.5 | 7.6 | – | – |
| O=S(=O)(F)Cc1ccccc1 [PMSF] | – | – | – | 86 | 88 |

Reference: patent US6255098A, “DS11 (KCTC 0231BP), novel Bacillus sp. strain and novel phytase produced by it” (priority 1996, dated 2001)
